Experimental data taken from US20260201062A1, “LIGAND-DRUG CONJUGATE OF EXATECAN ANALOGUE, PREPARATION METHOD THEREFOR AND APPLICATION THEREOF” (JIANGSU HENGRUI MEDICINE CO., LTD., priority 2018, published 2026).
Like-named read-outs stand apart in the source and are kept apart here.

Columns and labels:
[1] = system: trastuzumab (Herceptin) resistant human breast cancer cell strain JIMT-1 transplanted tumor; test: Efficacy evaluation in JIMT-1 tumor-bearing mice; assay type: in vivo, Nunu nude mice; settings: 10 mg/kg, intraperitoneal injection 2 times, Day 34
From the text: Formulation method: the drugs were all diluted and formulated with PBS. • 3. Test animals • Nunu nude mice, purchased from Beijing Vital River Laboratory Animal Technology Co., Ltd.
JIMT-1 cells (Nanjing Cobioer Biosciences Co., Ltd.) (5×10^6 cells/mouse, having 50% matrigel) were inoculated subcutaneously in the right rib of mouse. After the tumor grew for 8 days and reached 203.09±11.94 mm^3, the animals were randomly grouped into 6 groups with 8 animals per group (d1).
The drugs were administered by intraperitoneal injection for a total of 2 times. The tumor volume and body weight were measured twice a week, and the data were recorded.
Excel 2003 statistical software was used for data statistics: mean value was calculated as avg; SD value was calculated as STDEV; SEM value was calculated as STDEV/SQRT; P value between different groups was calculated as TTEST.
[formula] [formula] [formula] • wherein V0 and VT represent the tumor volume at the beginning of the test and at the end of the test, respectively. CRTV and TRTV represent the relative tumor volume of the blank control group (Vehicle, PBS) and the test group at the end of the test, respectively.

[2] = system: SK-BR-3 tumor cells (human breast cancer cells); test: In vitro inhibition of compound of formula (D) on tumor cell proliferation (CTG), SK-BR-3; assay type: cell-based; settings: read-out: IC50 of in vitro inhibition on the proliferation of SK-BR-3 cells
Method: (§1) The purpose of this test is to test the in vitro inhibition effect of the drug compound of formula (D) of the present invention on the proliferation of U87MG cells (Chinese Academy of Sciences cell bank, Catalog #TCHu138) and SK-BR-3 tumor cells (human breast cancer cells, ATCC, article number HTB-30). The cells were treated with different concentrations of the compound in vitro. After 6 days of cultivation, the cell proliferation was determined by CTG reagent (CellTiter-Glo® Luminescent Cell Viability Assay, Promega, article number: G7573), and the in vitro activity of the compound was evaluated according to the IC50 value.
The test method for in vitro proliferation inhibition test of the present compounds on tumor cells is described below by taking in vitro proliferation inhibition test method onU87MG cells as an example. This method is also applicable to, but not limited to, the in vitro proliferation inhibition tests on other tumor cells. • 1. Cell cultivation: U87MG cells and SK-BR-3 cells were cultured in EMEM medium containing 10% FBS (GE, article number SH30024.01) and McCoy's 5A medium containing 10% FBS (Gibco, article number 16600-108), respectively. • 2. Cell preparation: U87MG cells and SK-BR-3 cells in logarithmic growth phase were washed with PBS (phosphate buffer, Shanghai Basal Media Technologies Co., Ltd.) once, and then added with 2-3 ml of trypsin (0.25% Trypsin-EDTA (1×), Gibico, Life Technologies) to digest for 2-3 min. 10-15 ml of cell culture medium was added after the cells were completely digested. The digested cells were eluted, and centrifuged at 1000 rpm for 5 min. The supernatant was discarded, and 10-20 ml of cell culture medium was added to resuspend the cells to obtain a single-cell suspension. • 3. Cell plating: the U87MG and SK-BR-3 single-cell suspensions were mixed well, and the cell densities were adjusted to 2.75×10^3 cells/ml and 8.25×10^3 cells/ml with the cell culture medium respectively. The density-adjusted cell suspension was mixed well, and added to a 96-well cell culture plate at 180 μl/well. 200 μl of culture medium was added to the peripheral wells of the 96-well plate. The plate was incubated in an incubator for 24 hours (37° C., 5% CO2). • 4. Compound formulation: the compound was dissolved with DMSO (dimethylsulfoxide, Shanghai Titan Technology Co., Ltd.) to obtain a stock solution with an initial concentration of 10 mM.
The initial concentration of the small molecule compound was 500 nM, and the formulating method is as follows.
30 μl of different test samples were respectively added into the first column of the 96-well U-shaped bottom formulating plate with a sample concentration of 100 µM. 20 µl of DMSO was added to each well from the second column to the 11th column. […]

[3] = system: U87MG cells; test: In vitro inhibition of compound of formula (D) on tumor cell proliferation (CTG), U87MG; assay type: cell-based; settings: Homo sapiens, U-87 MG, 144 h, read-out: IC50 of in vitro inhibition on the proliferation of U87 cells
Method: as §1
The test method for in vitro proliferation inhibition test of the present compounds on tumor cells is described below by taking in vitro proliferation inhibition test method onU87MG cells as an example. This method is also applicable to, but not limited to, the in vitro proliferation inhibition tests on other tumor cells. • 1. Cell cultivation: U87MG cells and SK-BR-3 cells were cultured in EMEM medium containing 10% FBS (GE, article number SH30024.01) and McCoy's 5A medium containing 10% FBS (Gibco, article number 16600-108), respectively. • 2. […]

[4] = 144 h, SK-BR-3, 6 days of cultivation, CTG reagent

| Compound | IC50 [2, 4] [nM] | IC50 ([2]; SK-BR-3, 144 h) [nM] | IC50 [3] [nM] | also measured |
| --- | --- | --- | --- | --- |
| T-DM1 | – | – | – | tumor inhibition rate [1]: no inhibition effect on tumor |
| CC[C@@]1(O)C(=O)OCc2c1cc1n(c2=O)Cc2c-1nc1cc(F)c(C)c3c1c2[C@@H](NC(=O)C1(CO)CCC1)CC3 [Compound 6, N-((1S,9S)-9-Ethyl-5-fluoro-9-hydroxy-4-methyl-10,13-dioxo-2,3,9,10,13,15-hexahydro-1H,12H-benzo[de]pyrano[3′,4′:6,7]indolizino[1,2-b]quinolin-1-yl)-1-(hydroxymethyl) cyclobutane-1-carboxamide] | 1 | – | – | – |
| CC[C@@]1(O)C(=O)OCc2c1cc1n(c2=O)Cc2c-1nc1cc(F)c(C)c3c1c2[C@@H](NC(=O)C1(O)CC1)CC3 [Compound 1, N-((1S,9S)-9-Ethyl-5-fluoro-9-hydroxy-4-methyl-10,13-dioxo-2,3,9,10,13,15-hexahydro-1H,12H-benzo[de]pyrano[3′,4′:6,7]indolizino[1,2-b]quinolin-1-yl)-1-hydroxycyclopropane-1-carboxamide] | – | 0.12 | 0.23 | – |
| CC[C@@]1(O)C(=O)OCc2c1cc1n(c2=O)Cc2c-1nc1cc(F)c(C)c3c1c2[C@@H](NC(=O)C1(O)CCC1)CC3 [Compound 7, N-((1S,9S)-9-Ethyl-5-fluoro-9-hydroxy-4-methyl-10,13-dioxo-2,3,9,10,13,15-hexahydro-1H,12H-benzo[de]pyrano[3′,4′:6,7]indolizino[1,2-b]quinolin-1-yl)-1-hydroxycyclobutane-1-carboxamide] | 1 | – | – | – |
| CC[C@@]1(O)C(=O)OCc2c1cc1n(c2=O)Cc2c-1nc1cc(F)c(C)c3c1c2[C@@H](NC(=O)C1(CO)CC1)CC3 [Compound 5, N-((1S,9S)-9-Ethyl-5-fluoro-9-hydroxy-4-methyl-10,13-dioxo-2,3,9,10,13,15-hexahydro-1H,12H-benzo[de]pyrano[3′,4′:6,7]indolizino[1,2-b]quinolin-1-yl)-1-(hydroxymethyl) cyclopropane-1-carboxamide] | – | – | 4.81 | – |
| CC[C@@]1(O)C(=O)OCc2c1cc1n(c2=O)Cc2c-1nc1cc(F)c(C)c3c1c2[C@@H](NC(=O)C1(O)CCCC1)CC3 [Compound 4, N-((1S,9S)-9-Ethyl-5-fluoro-9-hydroxy-4-methyl-10,13-dioxo-2,3,9,10,13,15-hexahydro-1H,12H-benzo[de]pyrano[3′,4′:6,7]indolizino[1,2-b]quinolin-1-yl)-1-hydroxycyclopentane-1-carboxamide] | – | 1.9 | – | – |
